This note sets out measurements from patent US11186577B2, “Vasopressin receptor antagonists and products and methods related thereto” (BlackThorn Therapeutics, Inc., priority 2017, dated 2021).

Where two headings read alike, the source gives them in different places.

Series [1] has as its target human Arginine Vasopressin Receptor 1a (AVPR1a) (Homo sapiens (Human), UniProt P37288). The series is described as follows: Vasopressin V1A receptor antagonist assay (AVP-evoked calcium, FLIPR, CHO-AVPR1a cells). It counts as cell-based. To be noted: read-out: V1a IC50. In a few lines:
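Antagonism measured as reduction of AVP (EC80, set each assay day) calcium response on FLIPR in dye-loaded CHO-AVPR1a cells. Compounds, 3 μM top in 10-point 1:3 dilution, in duplicate, added 15 min before agonist at 37° C.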

For the next series, the system named is MDR1-MDCK cells. The series is described as follows: MDR1-MDCK effective efflux assay (Transwell, 10 μM, 1 hour), MDR1-MDCK cells. In kind it is in vitro ADME. To be noted: for Papp AB MDR1: MDR1-MDCK cells, apical to basolateral (A>B), 10 μM, 1 hour; for MDR1 EER / MDR1 ER: MDCK-MDR1. The protocol:
(§1) The MDR1-MDCK effective efflux assay was performed as described in the BioFocus Standard Operating Procedure, ADME-SOP-56. Both wild-type (WT) and MDR1-MDCK cells (Solvo Biotechnology) were seeded onto 24-well Transwell plates at 2.35×10^5 cells per well and used in confluent monolayers after a 3 day culture at 37° C. under 5% CO2. For both cell types, test and control compounds (propranolol, vinblastine) were added (10 μM, 0.1% DMSO final, n=2) to donor compartments of the Transwell plate assembly in assay buffer (Hanks balanced salt solution supplemented with 25 mM HEPES, adjusted to pH 7.4) for both apical to basolateral (A>B) and basolateral to apical (B>A) measurements. Incubations were performed at 37° C., with samples removed from both donor and acceptor chambers at T=0 and 1 hour and compound analysed by mass spectrometry (LC-MS/MS) including an analytical internal standard.
(§2) Where V is the volume of each Transwell compartment (apical 125 basolateral 600 and concentrations are the relative MS responses for compound (normalized to internal standard) in the donor chamber before incubation and acceptor chamber at the end of the incubation. Area=area of cells exposed for drug transfer (0.33 cm2).
(§3) Efflux ratios (Papp B>A/Papp A>B) were calculated for each compound from the mean Papp values in each direction for both wild-type and MDR1-MDCK cells.
(§4) In order to confirm the involvement of MDR1 in any efflux seen, an “effective efflux ratio” (EER) was calculated by comparing compound efflux ratios (ER) in the two cell types, i.e. EER=ER(MDR1−MDCK)/ER(wild-type MDCK)
(§5) This ratio illustrates the effect of the over-expressed MDR1 normalised for the background movement of compound through the wild-type cells.
(§6) Lucifer Yellow (LY) was added to the apical buffer in all wells to assess viability of the cell layer. Compound recovery from the wells was determined from MS responses (normalized to internal standard) in donor and acceptor chambers at the end of incubation compared to response in the donor chamber pre-incubation.

Series [2] concerns wild-type (WT) MDCK cells. Kind of series: MDR1-MDCK effective efflux assay (Transwell, 10 μM, 1 hour), wild-type MDCK cells. To be noted: for Papp AB WT: wild-type MDCK cells, apical to basolateral (A>B), 10 μM, 1 hour; for WT ER: MDCK. In kind it is in vitro ADME. Here is the method:
as §1, §2, §3, §4, §5, §6

Series [3] addresses human Oxytocin Receptor (hOTR) (Homo sapiens (Human), UniProt P30559). Kind of series: Oxytocin receptor antagonist assay (oxytocin-evoked calcium, FLIPR, CHEM-1-hOTR cells). In kind it is cell-based. To be noted: read-out: OT IC50. Here is the method: This assay was performed in CHEM-1 cells expressing the human Oxytocin Receptor (hOTR) to determine the inhibitory effect of the compounds of the invention on the human Oxytocin receptor. Oxytocin evokes an increase in intracellular calcium in CHEM-1-hOTR cells which is measured in a fluorescence assay on the FLIPR^TETRA using calcium sensitive dyes. Test compounds were assessed for their ability to affect the magnitude of the response to oxytocin, with antagonists showing a concentration-dependent reduction in the oxytocin-mediated fluorescence.
CHEM-1-hOTR ready was used to assay frozen cells (Eurofins #HTS090RTA) which are supplied with a proprietary Media Component.
Cells were thawed in a 37° C. water bath and diluted with the supplied Media Component to a final volume of 10 ml. The cell suspension was centrifuged at 1000 rpm for 3 min at room temperature and the supernatant was discarded. The cell pellet was resuspended in Media Component (10.5 ml) and the cells (25 μL) were dispensed into a poly-D-lysine coated black, clear bottomed, 384-well plate. The plates were incubated overnight at 37° C., 5% CO2.
At the start of each assay day the potency of oxytocin was assessed and an EC80 concentration was determined for subsequent compound profiling. Assays were performed using a two-step addition protocol on the FLIPR^TETRA; first addition of 5 μl of control or test compound at 10× final in assay buffer with 15 min incubation at 37° C., 5% CO2 followed by 10 μl of oxytocin at 6× final concentration in assay buffer. Changes in fluorescence were monitored for 3 min after both additions on the FLIPR^TETRA using 470-495 nm excitation and 515-575 nm emission wavelengths. The assay buffer consisted of HBSS (+Ca/+Mg) supplemented with 20 mM HEPES, and for the preparation of the oxytocin agonist only, 0.1% w/v bovine serum albumin. The assay was initiated by the removal of growth media from the cells and replaced with 45 μl of Calcium-6 dye (Molecular Devices) prepared at 1× in assay buffer. Cells were loaded with dye for 60-90 min at 37° C., 5% CO2 before initiation of the FLIPR^TETRA protocol. […] For compound profiling, test compounds were first serially diluted in DMSO (10-point curve, 1:3 dilutions) then diluted 33.3-fold in assay buffer prior to addition to the dye loaded cells on the FLIPR^TETRA. At the end of the incubation period 10 μl of oxytocin in assay buffer containing 0.1% BSA was added at the previously determined EC80 concentration.
In-plate controls for the assay include a L-368,899 concentration-response curve as the reference OTR antagonist and an oxytocin concentration-response curve to confirm the reproducibility of the EC80 used for the compound challenge.

The test system of a further series is MDR1 (P-glycoprotein). Kind of series: MDR1-MDCK effective efflux assay (Transwell, 10 μM, 1 hour), MDR1-MDCK cells. It counts as in vitro ADME. To be noted: dog. Here is the method: as §1, §2, §3, §4, §5, §6
A short description of series [4]: MDR1-MDCK effective efflux assay (Transwell, 10 μM, 1 hour), wild-type MDCK cells. In kind it is in vitro ADME. To be noted: dog, MDCK. Here is the method:
as §1, §2, §3, §4, §5, §6

Where [5] appears, read: MDCK-MDR1, pH 7.4, Papp AB MDR1.
[6] abbreviates: MDCK-MDR1, pH 7.4, MDR1-MDCK cells, apical to basolateral (A>B), 10 μM, 1 hour, read-out: Papp AB MDR1.
Setting [7] is: pH 7.4, wild-type MDCK cells, apical to basolateral (A>B), 10 μM, 1 hour, read-out: Papp AB WT.

Chain of human Arginine Vasopressin Receptor 1a (AVPR1a) (P37288 whole entry): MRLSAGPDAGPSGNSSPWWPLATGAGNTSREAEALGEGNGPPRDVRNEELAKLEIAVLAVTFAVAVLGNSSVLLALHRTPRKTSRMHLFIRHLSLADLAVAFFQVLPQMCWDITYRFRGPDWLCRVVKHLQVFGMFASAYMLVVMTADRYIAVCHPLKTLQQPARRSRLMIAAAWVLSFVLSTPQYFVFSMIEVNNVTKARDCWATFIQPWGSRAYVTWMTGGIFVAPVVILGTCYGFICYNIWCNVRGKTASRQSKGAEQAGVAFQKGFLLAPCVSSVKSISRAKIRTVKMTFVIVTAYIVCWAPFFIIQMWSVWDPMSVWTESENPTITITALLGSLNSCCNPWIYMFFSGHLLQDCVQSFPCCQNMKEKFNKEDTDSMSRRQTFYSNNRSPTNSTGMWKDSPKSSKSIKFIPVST
Chain of human Oxytocin Receptor (hOTR) (P30559 whole entry): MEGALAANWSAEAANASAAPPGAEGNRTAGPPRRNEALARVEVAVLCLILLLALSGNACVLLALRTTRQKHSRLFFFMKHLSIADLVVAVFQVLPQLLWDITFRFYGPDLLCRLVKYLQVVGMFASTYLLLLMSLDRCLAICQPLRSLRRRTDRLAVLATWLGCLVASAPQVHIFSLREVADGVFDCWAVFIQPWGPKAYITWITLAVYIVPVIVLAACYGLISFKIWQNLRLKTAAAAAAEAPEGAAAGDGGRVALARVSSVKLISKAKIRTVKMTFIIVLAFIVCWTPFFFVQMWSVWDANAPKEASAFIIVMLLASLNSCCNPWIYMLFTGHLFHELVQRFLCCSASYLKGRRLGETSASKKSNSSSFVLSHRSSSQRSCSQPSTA

In the case of `CCOC(=O)N1Cc2cc(Cl)ccc2-n2c(C3CC4(C3)CN(c3ncc(F)cn3)C4)nnc2C1C` (single isomer, unassigned) [Cpd 172A], the IC50 in series [1] was under 100 nM. Also, in the series on MDR1-MDCK cells, the “Papp AB MDR1” value is on record as “++++ ((++++) denotes >20 (10^-6 cm/sec))”. Further, the “Papp AB WT” value in series [2] is given as “++++ ((++++) denotes >20 (10^-6 cm/sec))”.
On to `COC(=O)N1Cc2cc(Cl)ccc2-n2c(C3CC4(C3)CN(c3ccncn3)C4)nnc2C1C` (single isomer, unassigned) [Cpd 184A], for which the 50% inhibitory concentration (IC50) in series [1] was under 100 nM. The “Papp AB WT” value in series [2] is “++++ ((++++) denotes >20 (10^-6 cm/sec))”.
Take `CC1c2nnc(C3CC4(C3)CN(c3ncc(F)cn3)C4)n2-c2ccc(Cl)cc2CN1C(=O)OC(CF)CF` (single isomer, unassigned) [Cpd 194A]: the IC50 in series [1] was under 100 nM. The “Papp AB WT” value in series [2] is recorded as “++++ ((++++) denotes >20 (10^-6 cm/sec))”.
In the case of `CC1c2nnc(C3CC4(C3)CN(c3ncccn3)C4)n2-c2ccc(Cl)cc2CN1C(=O)OC(CF)CF` (single isomer, unassigned) [Cpd 202B], the IC50 in series [1] and in series [3] was over 1000 nM each time. The “Papp AB MDR1” value in the series on MDR1-MDCK cells is on record as “+ ((+) denotes an apparent permeability <7 (10^-6 cm/sec))”. Moreover, the “Papp AB WT” value in series [2] is “++++ ((++++) denotes >20 (10^-6 cm/sec))”.
`COc1ccc2c(c1)CN(C)Cc1nnc(C3CC4(C3)CN(c3cnccn3)C4)n1-2` [compound 19]: the Papp A→B at 1 h, 10 μM in the series with MDR1 (P-glycoprotein) (setting [5]) was under 7 ×10⁻⁶ cm/s. In the series on MDR1-MDCK cells, the “MDR1 EER” value is given as “+” and the “MDR1 ER” value is on record as “+”. Also, the Papp A→B at 1 h, 10 μM in series [4] (pH 7.4, Papp AB WT) was over 20 ×10⁻⁶ cm/s. The “WT ER” value in series [2] is “+++”.
With `CN1Cc2cc(Cl)ccc2-n2c(nnc2C2CC3(C2)CN(C(=O)C2(F)CC2)C3)C1` [compound 36], the IC50 in series [1] was under 100 nM. The molecule further displayed a Papp A→B at 1 h, 10 μM in the series with MDR1 (P-glycoprotein) (setting [5]) of under 7 ×10⁻⁶ cm/s. Besides, in the series with MDR1-MDCK cells, the “MDR1 EER” value was “+” and the “MDR1 ER” value was “+”. The Papp A→B at 1 h, 10 μM in series [4] (pH 7.4, Papp AB WT) was 10 to 20 ×10⁻⁶ cm/s. For the same molecule, the “WT ER” value in series [2] is given as “++”.
Turning to `COC(=O)N1Cc2cc(Cl)ccc2-n2c(nnc2C2CC3(C2)CN(c2cccnn2)C3)C1` [compound 75], the concentration for half-maximal inhibition (IC50) in series [1] is under 100 nM. The Papp A→B at 1 h, 10 μM in the series on MDR1 (P-glycoprotein) (setting [5]) is under 7 ×10⁻⁶ cm/s. In addition, in the series with MDR1-MDCK cells, the “MDR1 EER” value is “+” and the “MDR1 ER” value is given as “+”. This molecule displayed a Papp A→B at 1 h, 10 μM in series [4] (pH 7.4, Papp AB WT) of 10 to 20 ×10⁻⁶ cm/s.
As for `COC(=O)N1Cc2cc(Cl)ccc2-n2c(nnc2C2CC3(C2)CN(c2cccc(C#N)n2)C3)C1` [compound 91, methyl 8-chloro-1-(2-(6-cyanopyridin-2-yl)-2-azaspiro[3.3]heptan-6-yl)-4H-benzo[f][1,2,4]triazolo[4,3-a][1,4]diazepine-5(6H)-carboxylate], the IC50 in series [1] is under 100 nM; in series [3], 500 to 1000 nM. Also, the Papp A→B at 1 h, 10 μM in the series with MDR1 (P-glycoprotein) (setting [6]) is under 7 ×10⁻⁶ cm/s; in series [4] (setting [7]), over 20 ×10⁻⁶ cm/s.
For `COC(=O)N1Cc2cc(Cl)ccc2-n2c(nnc2C2CC3(C2)CN(c2ncccn2)C3)C1` [compound 95], in that order: under 100 nM, 500 to 1000 nM, under 7 ×10⁻⁶ cm/s and over 20 ×10⁻⁶ cm/s.

Broadly, the IC50 is the concentration needed to halve the response being measured.
